PubChem BioAssay (NCI)
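Cells were grown in 96-well plates and exposed to each compound for 48 hours at five concentrations; endpoints were interpolated linearly between bracketing concentrations, or set to the highest concentration if not reached. Abbreviation: GI50, concentration required for 50% inhibition of growth. At the TGI there is no net growth.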 *1 amine or outer side, *2 acyl side, *3 side chain or, on linkers, in order; H or OH if unused. Where a SMILES comes first, the peptide text is derived from it. Bridges are numbered along the chain shown (N, C = ends). Roman numbers before positions name the chains, in order. [ ]: non-standard residue; d: D form. Actinocin(9to1) = Cc1c2oc3c(C)ccc(C(=O)[*:1])c3nc-2c(C(=O)[*:2])c(N)c1=O; NMeV = CN[CH](C(=O)O)C(C)C; Sar = CNCC(=O)O

How the values were obtained:
Assay in all cases: NCI tumour cell line growth inhibition, 48 h
UACC-62 melanoma = system: UACC-62 melanoma
NCI-H460 lung = system: NCI-H460 lung
TK-10 renal = system: TK-10 renal
COLO 205 colon = system: COLO 205 colon
UACC-257 melanoma = system: UACC-257 melanoma
A498 renal = system: A498 renal
NCI/ADR-RES ovarian = system: NCI/ADR-RES ovarian
SF-295 CNS = system: SF-295 CNS
OVCAR-5 ovarian = system: OVCAR-5 ovarian
MALME-3M melanoma = system: MALME-3M melanoma

`CC(C)=C[C@H]1C[C@H](C)[C@H]2CC[C@H](C)c3c2c1c(C)c1ncoc31` showed a TGI (UACC-62 melanoma) of 32.9 µM, a TGI (NCI-H460 lung) of 35.6 µM and a TGI (TK-10 renal) of 31.7 µM. The TGI (COLO 205 colon) was 33.6 µM, the TGI (UACC-257 melanoma) was 33.5 µM and the TGI (A498 renal) was 34.9 µM. The TGI (NCI/ADR-RES ovarian) was 32.4 µM, the TGI (SF-295 CNS) was 31.2 µM and the TGI (OVCAR-5 ovarian) was 29.9 µM. The TGI (MALME-3M melanoma) was 29.5 µM.
With `Cc1c2oc3c(C)ccc(C(=O)NC4C(=O)NC(C(C)C)C(=O)N5CCCC5C(=O)N(C)CC(=O)N(C)C(C(C)C)C(=O)OC4C)c3nc-2c(C(=O)NC2C(=O)NC(C(C)C)C(=O)N3CCCC3C(=O)N(C)CC(=O)N(C)C(C(C)C)C(=O)OC2C)c(N)c1=O` (stereo unspecified) (I: TVP[Sar][NMeV] / II: TVP[Sar][NMeV]; ester I:1-I:C, II:1-II:C; linker I:N-II:N via Actinocin(9to1); configuration not given here) the TGI (UACC-62 melanoma) was 0.00192 µM, the TGI (NCI-H460 lung) was 0.00126 µM and the TGI (TK-10 renal) was > 0.246 µM. It also gave a TGI (COLO 205 colon) of 0.00299 µM, a TGI (UACC-257 melanoma) of 0.0231 µM and a TGI (A498 renal) of 0.0152 µM. For the same compound, the TGI (NCI/ADR-RES ovarian) was > 1 µM, the TGI (SF-295 CNS) was 0.0687 µM and the GI50 (OVCAR-5 ovarian) was 0.00145 µM. For the same compound, the TGI (OVCAR-5 ovarian) was 0.00663 µM and the TGI (MALME-3M melanoma) was 0.0145 µM.
For `O=C1c2ccccc2-n2nnnc2C2CSCN12` (stereo unspecified), the TGI (UACC-62 melanoma) was > 100 µM, the TGI (NCI-H460 lung) was > 100 µM and the TGI (TK-10 renal) was > 100 µM. The TGI (COLO 205 colon) was > 100 µM, the TGI (UACC-257 melanoma) was > 100 µM and the TGI (A498 renal) was > 100 µM. The TGI (NCI/ADR-RES ovarian) was > 100 µM, the TGI (SF-295 CNS) was > 100 µM and the TGI (OVCAR-5 ovarian) was > 100 µM. The TGI (MALME-3M melanoma) was > 100 µM.
`C=C1C(=O)O[C@@H]2/C=C(C)/C=C\[C@@H]3O[C@@]3(C)C[C@@H](O)C12` (stereo partly specified) gave a TGI (UACC-62 melanoma) of 27.2 µM, a TGI (NCI-H460 lung) of 73.3 µM and a TGI (TK-10 renal) of 16.1 µM. It also gave a TGI (COLO 205 colon) of 21.1 µM, a TGI (UACC-257 melanoma) of 28.1 µM and a TGI (A498 renal) of 30.4 µM. For the same compound, the TGI (NCI/ADR-RES ovarian) was 33.4 µM, the TGI (SF-295 CNS) was > 100 µM and the TGI (OVCAR-5 ovarian) was 85.4 µM. The TGI (MALME-3M melanoma) was 30.9 µM.
With `CC1=C/C(=N\NC(N)=S)C(C(O)(C(F)(F)F)C(F)(F)F)C(C)(C)C1` (stereo unspecified) the TGI (UACC-62 melanoma) was > 10 µM, the TGI (NCI-H460 lung) was > 10 µM and the TGI (TK-10 renal) was > 10 µM. The TGI (COLO 205 colon) was > 10 µM, the TGI (UACC-257 melanoma) was > 10 µM and the TGI (A498 renal) was > 10 µM. For the same compound, the TGI (NCI/ADR-RES ovarian) was > 10 µM, the TGI (SF-295 CNS) was > 10 µM and the TGI (OVCAR-5 ovarian) was > 10 µM. For the same compound, the TGI (MALME-3M melanoma) was > 10 µM.
With `CCOC(=O)c1ccc(-c2cc(C)no2)[nH]1` the TGI (UACC-62 melanoma) was > 100 µM, the TGI (NCI-H460 lung) was > 100 µM and the TGI (TK-10 renal) was > 100 µM. For the same compound, the TGI (COLO 205 colon) was > 100 µM, the TGI (UACC-257 melanoma) was > 100 µM and the TGI (A498 renal) was > 100 µM. The TGI (NCI/ADR-RES ovarian) was > 100 µM, the TGI (SF-295 CNS) was > 100 µM and the TGI (OVCAR-5 ovarian) was > 100 µM. For the same compound, the TGI (MALME-3M melanoma) was > 100 µM.
In the case of `COCOC1/C=C/CCCCC(=O)C(C)C#CC1` (stereo unspecified), the TGI (UACC-62 melanoma) is reported as 15.8 µM, the TGI (NCI-H460 lung) is reported as 23.9 µM and the TGI (TK-10 renal) is reported as 21.6 µM. For the same compound, the TGI (COLO 205 colon) was 5.4 µM, the TGI (UACC-257 melanoma) was 19.5 µM and the TGI (A498 renal) was 24.6 µM. The TGI (NCI/ADR-RES ovarian) was 14.4 µM, the TGI (SF-295 CNS) was 31.3 µM and the TGI (OVCAR-5 ovarian) was 26.2 µM. For the same compound, the TGI (MALME-3M melanoma) was 4.95 µM.
In the case of `O=C1C(Br)=C(Br)C(=O)c2ccc(=O)ccc21`, the TGI (UACC-62 melanoma) is reported as 39.4 µM, the TGI (NCI-H460 lung) is reported as 67.6 µM and the TGI (TK-10 renal) is reported as 37.2 µM. For the same compound, the TGI (COLO 205 colon) was 26.4 µM, the TGI (UACC-257 melanoma) was 58.3 µM and the TGI (A498 renal) was > 100 µM. For the same compound, the TGI (NCI/ADR-RES ovarian) was 53.3 µM, the TGI (SF-295 CNS) was 50.9 µM and the TGI (OVCAR-5 ovarian) was > 86.7 µM. The TGI (MALME-3M melanoma) was 37.4 µM.
For `C(=C/CCCN1O[C@@H](CCCCCCCCc2cccnc2)[C@H]2CCC[C@H]21)/CCCCCCCCCc1cccnc1`, the TGI (UACC-62 melanoma) was 51 µM, the TGI (NCI-H460 lung) was 39.2 µM and the TGI (TK-10 renal) was 38.4 µM. The TGI (COLO 205 colon) was 30.9 µM, the TGI (UACC-257 melanoma) was 41.7 µM and the TGI (A498 renal) was 45.5 µM. For the same compound, the TGI (NCI/ADR-RES ovarian) was 88.5 µM, the TGI (SF-295 CNS) was 41.9 µM and the TGI (OVCAR-5 ovarian) was 41.5 µM. For the same compound, the TGI (MALME-3M melanoma) was 33.9 µM.
For `O=C1c2cccc3cc([N+](=O)[O-])cc(c23)C(=O)N1Nc1ccc([N+](=O)[O-])cc1[N+](=O)[O-]`, the TGI (UACC-62 melanoma) was 24.5 µM, the TGI (NCI-H460 lung) was 36.2 µM and the TGI (TK-10 renal) was > 46.4 µM. The TGI (COLO 205 colon) was 18.3 µM, the TGI (UACC-257 melanoma) was 24.1 µM and the TGI (A498 renal) was 41.1 µM. For the same compound, the TGI (NCI/ADR-RES ovarian) was > 31.6 µM, the TGI (SF-295 CNS) was > 31.6 µM and the TGI (OVCAR-5 ovarian) was > 100 µM. For the same compound, the TGI (MALME-3M melanoma) was > 31.6 µM.
`O=C1SC(SCc2ccccc2)=NC12CC2c1ccccc1` (stereo unspecified) showed a TGI (UACC-62 melanoma) of 32.8 µM, a TGI (NCI-H460 lung) of 41.4 µM and a TGI (TK-10 renal) of 81.1 µM. The TGI (COLO 205 colon) was 61.3 µM, the TGI (UACC-257 melanoma) was 38.5 µM and the TGI (A498 renal) was 65.1 µM. For the same compound, the TGI (NCI/ADR-RES ovarian) was 63 µM, the TGI (SF-295 CNS) was 44.8 µM and the TGI (OVCAR-5 ovarian) was 38.9 µM. The TGI (MALME-3M melanoma) was 34.8 µM.
`COc1ccc(S(=O)(=O)n2c3c(c4ccccc42)[C@@H]2[C@@H](CCCN2C(=O)CS(=O)c2ccc(C)cc2)[C@H](Cl)C3)cc1` (stereo partly specified) was tested, and the TGI (UACC-62 melanoma) was > 100 µM, the TGI (NCI-H460 lung) was > 100 µM and the TGI (TK-10 renal) was > 100 µM. The TGI (COLO 205 colon) was > 100 µM, the TGI (UACC-257 melanoma) was > 100 µM and the TGI (A498 renal) was > 100 µM. For the same compound, the TGI (NCI/ADR-RES ovarian) was > 100 µM, the TGI (SF-295 CNS) was > 100 µM and the TGI (OVCAR-5 ovarian) was > 100 µM. For the same compound, the TGI (MALME-3M melanoma) was > 100 µM.
`CC(C)(CN1CCCCC1)C(/C=C/c1ccc(Cl)cc1)=N\NC(=O)N/N=C(/C=C/c1ccc(Cl)cc1)C(C)(C)CN1CCCCC1` showed a TGI (UACC-62 melanoma) of 12.1 µM, a TGI (NCI-H460 lung) of 10.2 µM and a TGI (TK-10 renal) of 22.5 µM. It also gave a TGI (COLO 205 colon) of 11.7 µM, a TGI (UACC-257 melanoma) of 17.1 µM and a TGI (A498 renal) of 20.4 µM. It also gave a TGI (NCI/ADR-RES ovarian) of 29.4 µM, a TGI (SF-295 CNS) of 33 µM and a TGI (OVCAR-5 ovarian) of 14.7 µM. The TGI (MALME-3M melanoma) was 22.9 µM.
In the case of `COc1ccc(C(C)NNC(=O)c2ccncc2)cc1OC` (stereo unspecified), the TGI (UACC-62 melanoma) is reported as > 100 µM, the TGI (NCI-H460 lung) is reported as > 100 µM and the TGI (TK-10 renal) is reported as > 100 µM. For the same compound, the TGI (COLO 205 colon) was > 100 µM, the TGI (UACC-257 melanoma) was > 100 µM and the TGI (A498 renal) was > 100 µM. The TGI (NCI/ADR-RES ovarian) was > 100 µM, the TGI (SF-295 CNS) was > 100 µM and the TGI (OVCAR-5 ovarian) was > 100 µM. The TGI (MALME-3M melanoma) was > 100 µM.
For `COc1ccc(C(SCCO)(c2ccccc2)c2ccc(OC)cc2)cc1`, the TGI (UACC-62 melanoma) was 24.8 µM, the TGI (NCI-H460 lung) was 17.2 µM and the TGI (TK-10 renal) was 33.5 µM. For the same compound, the TGI (COLO 205 colon) was 36.2 µM, the TGI (UACC-257 melanoma) was 30.5 µM and the TGI (A498 renal) was 27.1 µM. For the same compound, the TGI (NCI/ADR-RES ovarian) was 34.7 µM, the TGI (SF-295 CNS) was 19 µM and the TGI (OVCAR-5 ovarian) was 31.6 µM. It also gave a TGI (MALME-3M melanoma) of 31.4 µM.
`O=C(C(=O)n1ccc2ccccc21)n1ccc2ccccc21` was tested, and the TGI (UACC-62 melanoma) was > 100 µM, the TGI (NCI-H460 lung) was > 100 µM and the TGI (TK-10 renal) was > 100 µM. The TGI (COLO 205 colon) was > 100 µM, the TGI (UACC-257 melanoma) was > 100 µM and the TGI (A498 renal) was > 100 µM. The TGI (NCI/ADR-RES ovarian) was > 100 µM, the TGI (SF-295 CNS) was > 100 µM and the TGI (OVCAR-5 ovarian) was > 100 µM. The TGI (MALME-3M melanoma) was > 100 µM.
`O=S(=O)(O)c1cc(N=Nc2c(O)ccc3ccccc23)cc2c(S(=O)(=O)O)cccc12` was tested, and the TGI (UACC-62 melanoma) was > 100 µM, the TGI (NCI-H460 lung) was > 100 µM and the TGI (TK-10 renal) was > 100 µM. For the same compound, the TGI (COLO 205 colon) was > 100 µM, the TGI (UACC-257 melanoma) was > 100 µM and the TGI (A498 renal) was > 100 µM. For the same compound, the TGI (NCI/ADR-RES ovarian) was > 100 µM, the TGI (SF-295 CNS) was > 100 µM and the TGI (OVCAR-5 ovarian) was > 100 µM. The TGI (MALME-3M melanoma) was > 100 µM.
